Here are results for one compound from patent publication US20250073206A1, “SOLID FORMS OF […] […] USES THEREOF” (Sensorium Therapeutics, Inc., priority 2021, published 2025).

Values after ≈ are worked out from the molar mass of the structure shown.

One may read the solubility as the dissolved amount per volume that the medium holds.

Data set [1] is described as follows: Approximate solubility by visual observation at 25° C. The settings on record: thermodynamic from solid. The format is physicochemical. As to the method:
About 5 mg of batch 1 was weighed into a 2 mL glass vial and aliquots of 20 μL of each solvent were added to get a clear solution. Max. volume of each solvent added was 1 mL.

In data set [2] the target is sodium-dependent serotonin transporter (SERT) (Homo sapiens, UniProt P31645). The note with it: naturally occurring, from Sceletium tortuosum; cited from earlier work.
Sequence of sodium-dependent serotonin transporter (SERT) (P31645 whole entry, species assumed): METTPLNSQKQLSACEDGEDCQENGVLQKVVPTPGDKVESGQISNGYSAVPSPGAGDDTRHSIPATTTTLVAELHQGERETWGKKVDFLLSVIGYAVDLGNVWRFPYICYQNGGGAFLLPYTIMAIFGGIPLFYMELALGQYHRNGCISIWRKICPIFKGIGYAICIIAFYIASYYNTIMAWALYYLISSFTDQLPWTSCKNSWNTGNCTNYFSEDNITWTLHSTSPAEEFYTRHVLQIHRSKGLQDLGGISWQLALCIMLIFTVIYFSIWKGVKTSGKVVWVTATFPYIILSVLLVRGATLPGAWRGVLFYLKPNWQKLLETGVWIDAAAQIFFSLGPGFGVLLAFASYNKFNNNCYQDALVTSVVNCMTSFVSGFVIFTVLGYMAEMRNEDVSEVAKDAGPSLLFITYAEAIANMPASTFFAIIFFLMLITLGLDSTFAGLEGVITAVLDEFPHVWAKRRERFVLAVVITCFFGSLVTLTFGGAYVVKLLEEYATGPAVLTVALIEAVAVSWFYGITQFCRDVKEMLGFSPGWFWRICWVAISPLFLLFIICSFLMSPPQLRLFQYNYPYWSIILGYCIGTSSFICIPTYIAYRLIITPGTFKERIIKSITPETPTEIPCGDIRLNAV

Take `COc1ccc([C@@]23CCC(=O)C[C@@H]2N(C)CC3)cc1OC` [(−) mesembrine, 3a-(3,4-dimethoxyphenyl)-octahydro-1-methyl-6H-indol-6-one]: the solubility lay in the range of 125 to 250 mg/mL (≈ 432 to 864 mM) in data set [1] (organic solvent or mixture, Acetone); 125 to 250 mg/mL (≈ 432 to 864 mM) in data set [1] (organic solvent or mixture, Acetonitrile); 125 to 250 mg/mL (≈ 432 to 864 mM) in data set [1] (organic solvent or mixture, Dichloromethane); 125 to 250 mg/mL (≈ 432 to 864 mM) in data set [1] (organic solvent or mixture, Ethanol); 125 to 250 mg/mL (≈ 432 to 864 mM) in data set [1] (organic solvent or mixture, Ethyl acetate); 125 to 250 mg/mL (≈ 432 to 864 mM) in data set [1] (organic solvent or mixture, Methanol). The solubility fell in the range of 125 to 250 mg/mL (≈ 432 to 864 mM) in data set [1] (organic solvent or mixture, Tetrahydrofuran); 7 to 10 mg/mL (≈ 24.2 to 34.6 mM) in data set [1] (organic solvent or mixture, Toluene); 125 to 250 mg/mL (≈ 432 to 864 mM) in data set [1] (organic solvent or mixture, t-Butyl methyl ether); 125 to 250 mg/mL (≈ 432 to 864 mM) in data set [1] (Water). Moreover, in data set [2], the “serotonin (5-HT) uptake inhibitory activity” value is “serotonin (5-HT) uptake inhibitory activity”.
